According to patent publication US20240016941A1, “COMBINATION THERAPY” (priority 2020, published 2024):
“Also recorded” adds a separate entry of the source.

Columns and labels:
[1] = target: T1, purified LasB protein from P. aeruginosa (Pseudomonas aeruginosa, UniProt P14756); assay: Fluorometric assay to determine Ki (purified LasB, Abz-Ala-Gly-Leu-Ala-p-Nitro-Benzyl-Amide substrate); type: biochemical
T1 construct: purchased Merck or Charles River Laboratories
How it was run: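 Purified P. aeruginosa LasB (10-140 ng/ml) with 250 μM Abz-Ala-Gly-Leu-Ala-p-nitrobenzylamide in Tris pH 7.4, 2.5 mM CaCl2, 0.01% Triton X100; fluorescence (340/415 nm) followed 30 min at 37 °C. IC50 from 2-fold series (0.0016-200 μM); Ki = IC50/(1+[S]/Km), Km 214 μM.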

[2] = target: T2, LasB elastase activity of dialysed supernatant from P. aeruginosa PAO1 (Pseudomonas aeruginosa, UniProt P14756); assay: Elastin Congo-Red assay to determine % inhibition (dialysed PAO1 supernatant); type: biochemical; details: read-out: Elastin hydrolysis % inhibition @ 25 μM inhibitor concentration
T2 construct: Culture supernatants are recovered by centrifugation and filtrated through a 0.22 μM filter; endogenous in cells; host or cells: P. aeruginosa strain PAO1, culture supernatant, filtered and dialysed
T2 sequence (P14756 198-498): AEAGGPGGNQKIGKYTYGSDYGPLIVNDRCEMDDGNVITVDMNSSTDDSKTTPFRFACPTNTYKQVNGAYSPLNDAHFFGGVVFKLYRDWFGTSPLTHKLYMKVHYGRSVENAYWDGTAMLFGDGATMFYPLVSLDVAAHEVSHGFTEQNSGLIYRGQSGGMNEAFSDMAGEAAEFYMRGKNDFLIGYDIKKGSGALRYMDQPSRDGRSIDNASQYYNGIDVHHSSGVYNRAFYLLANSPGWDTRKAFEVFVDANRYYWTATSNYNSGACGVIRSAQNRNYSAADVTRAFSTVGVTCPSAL
How it was run: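 End-point assay: dialysed PAO1 culture supernatant (in 50 mM Tris-HCl pH 7.4, 2.5 mM CaCl2) mixed with Elastin Congo-Red plus 0.01% Triton X100 and compound (routinely 50 to 1.56 μM), incubated overnight at 37 °C with shaking. Released dye read at OD495nm; % inhibition relative to DMSO and enzyme-free controls.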

purified LasB = purified LasB (Pseudomonas aeruginosa, UniProt P14756); assay: Inhibition of LasB-mediated hydrolysis of pro-IL-1β to IL-1β (FRET peptide); type: biochemical
Sequence of purified LasB (P14756 198-498): as above
Method: Hydrolysis of this FRET peptide was continuously monitored using a Victor multimode plate reader (Perkin Elmer) with excitation 355 nm and emission at 450 nm in the presence of varying concentrations of compounds of the invention. Inhibitory constants (Ki) were determined for certain compounds of the invention (at least 2 independent replicates) using a competitive inhibitor model.

PA (PAO1) = assay: Mouse model of Pseudomonas aeruginosa lung infection; type: in vivo; details: mice infected with wild-type PAO1, i.v. 1 h and 2 h post infection, 10 and 30 mg/kg, 24 hours post infection
Method: Mice were dosed by intranasal inoculation of PA (PAO1), then sacrificed after 24 hours. The extent of infection in the lung was quantified by bacterial load (CFU determination, colony forming units) and the levels of proinflammatory IL-1β. Statistical analysis on both readouts were performed by ANOVA with a Dunnett post-test.
Compounds were administered intravenously in a two-dose regimen (1 hour and 2 hours post infection) at two different doses (10 and 30 mg/kg).

[3] = target: T3, LasB from Pseudomonas aeruginosa (Pseudomonas aeruginosa, UniProt P14756); assay: Inhibition of LasB-mediated reduction of CFTR levels on airway cells (CFTR IP / Western blot); type: cell-based; details: NHBE airway cells, 100 nM LasB, 1, 10 or 100 μM compound, 24 hrs
T3 construct: host or cells: Exogenous enzyme applied apically to NHBE cells
T3 sequence (P14756 198-498): as above
Method: These experiments measured the amount of CFTR protein expressed in airway cells under normal conditions and also exposed to 100 nM LasB. […] The effect of adding increasing concentrations of a LasB inhibitor (here the compound of Example 23) on this reduction of CFTR by LasB was then examined.
Normal Human Bronchial Epithelial (NHBE) airway cells were expanded in Pneumacult™ EX medium on plastic PureCol™ coated dishes. Cells were plated on Millicell inserts (200K/insert) and differentiated at air-liquid interface for 26 days in modified Lonza Medium. Prior to treatment, cells were washed in 1×DPBS buffer.
Treatments were 100 nM LasB from Pseudomonas aeruginosa and 0, 1, 10, or 100 μM Example 23 for 24 hrs. A stock solution of LasB (200 nM) was prepared in buffer containing 50 mM Tris HCL pH 7.4, 2.5 mM CaCl2 and 0.01% TritonX-100. A 20 mM stock solution of Example 23 was made in DMSO and sonicated for 10 minutes. The DMSO stock was diluted, 10 μL into 990 μL buffer, to give a 200 μM solution. […]
The cells were lysed with 1% NP-40 lysis buffer containing protease inhibitors (1 μg/ml leupeptin, 2 μg/ml aprotinin, […] pefabloc, 121 μg/ml benzamidine, 3.5 μg/ml E64) and stored at −80° C. until IP/WB analysis. […] Protein bands were visualized using a Sapphire Biomolecular Imager (Azure Biosystems) and quantitated with AzureSpot Analysis Software.

[4] = system: PAO1 WT secretome (contains LasB); details: WT-SEC treated cells; cited from earlier work

T1 sequence (P14756 198-498): as above

Structure (SMILES) | Ki [1] [nM] | inhibition at 25 µM [2] [%] | Ki (purified LasB) [nM] | extent of infection in the lung (CFU levels) (PA (PAO1)) | production and activation of IL-1β in the lung (PA (PAO1)) | CFTR protein level in LasB-exposed cells [3] | downregulation of trappin-2 and IL-6 by WT secretome [4]
COc1cc2sc(CNC(=O)C3(CC(=O)[O-])Cc4cc(F)c(F)cc4C3)nc2cc1OCCC[N+](C)(CCO)CCO [Example 23, 2-[2-[[5-[3-[bis(2-hydroxyethyl)-methyl-ammonio]propoxy]-6-methoxy-1,3-benzothiazol-2-yl]methylcarbamoyl]-5,6-difluoro-indan-2-yl]acetate] | < 50 | > 80 | 500 | reduced the extent of infection in the lung to the level of the LasB deleted mutant | inhibited the production and activation of IL-1β in mice infected by wild-type PA (PA01) at a similar level than the lasB deleted mutant | ameliorated by increasing concentrations of Example 23; also recorded: counteract the reduction in CFTR expression caused by LasB in a dose-related manner | –
CC(C)C[C@H](NP(=O)(O)O[C@@H]1O[C@@H](C)[C@H](O)[C@@H](O)[C@H]1O)C(=O)N[C@@H](Cc1c[nH]c2ccccc12)C(=O)O [phosphoramidon] | – | – | – | – | – | – | prevented
